For six compounds, receptor occupancy, p62 oligomerization and LC3 lipidation results are on record in patent US20250282742A1, “BENZOFURAN DERIVATIVES FOR TARGETING AUTOPHAGY” (Automera PTE. LTD, priority 2024, published 2025).

SMILES strings stand for the structures.

For one experiment, the target named is T1, Recombinant p62 protein (Homo sapiens, UniProt Q13501).
T1 construct: Recombinant p62 protein was buffer exchanged into Biacore SPR running buffer
In words: Surface plasmon resonance (SPR) compound binding to immobilised p62. As to conditions: recombinant p62, 15° C. How it is done:
Example 28: Surface Plasmon Resonance (SPR) Analysis
Recombinant p62 protein was buffer exchanged into Biacore SPR running buffer (Cytiva 100671) using the Slide-A-Lyzer Mini Dialysis system 7K MWCO (Thermo Fisher Scientific, Cat no. 69560). The final protein concentration was determined using the Nanodrop One spectrophotometer (Thermo Fisher Scientific, cat no. ND-ONE-W), with calibration for the dialysis buffer.
The prepared protein was diluted in sodium acetate buffer (NaAc, pH 5.5, Cytiva) to concentrations ranging from approximately 0.25-40 μg/mL. Post-immobilization, the protein required approximately 16 hours of equilibration in running buffer supplemented with 1% DMSO at 15° C. to ensure adequate surface equilibration and protein reorganization.
All SPR experiments were conducted at a constant temperature of 15° C. The SPR chip surface was activated using EDC/NHS for a contact time of 6-10 min at a flow rate of 10 μL/min. This was followed by protein immobilization for 2100 seconds and ethanolamine capping for 420 seconds, both at the same flow rate. Immediately after immobilization, the NH2—REEE peptide was analyzed in Single Cycle Kinetics mode (SCK) to verify surface activity, ensuring it binds the sample with the published affinity (−20 μM by SPR).
For general compound binding studies, experiments were performed at 15° C. using a running buffer composed of 10 mM HEPES, 150 mM NaCl, 1 mM DTT, 0.05% Tween 20, and 1% DMSO at pH 7.4. The test compound was initially prepared at a 20 mM concentration in DMSO and subsequently titrated in 2-fold dilutions. For each assay, 2 μL of the compound was mixed with 198 μL of the running buffer, and the mixture was thoroughly pipetted approximately 15 times for homogenization.
A series of blank injections (0 μM concentration) were included for double referencing, with at least 8 or 16 per plate depending on the format. Typical injection parameters were 120 seconds for association and 180 seconds for dissociation at a flow rate of […]. A four-point solvent correction was prepared with DMSO concentrations ranging from 2% to 0.5% in the buffer. Post each compound injection, the system's needles were washed with 50% DMSO.
Analysis of the SPR data was conducted using the Cytiva Evaluation software. The binding levels at the late time-point of each interaction were corrected for reference, then normalized to percentage bound values to account for variations in immobilization levels, protein molecular weight, and compound molecular weight.
Compound binding studies were carried out according to experimental procedures above and SPR % occupancy was determined and summarized in Table 7.
(In general: In SPR one partner is held on a chip, and binding of the other changes the refractive index at the surface.)

The subject of experiment [1] is p62 oligomers in HeLa cells. In words: p62 oligomerization assay (Western blot, 24 h treatment). It counts as cell-based. Conditions: fold change of p62 oligomer levels relative to DMSO control. The procedure: (§1) HeLa cells were seeded in 6-well plates (700,000 cells) and allowed to adhere overnight. Media was replaced one hour before administering either vehicle (DMSO) or test compounds. After 24 hours of treatment, the media was discarded, and cells were rinsed once with ice-cold 1×PBS before detached from plates with ice-cold RIPA Lysis and Extraction Buffer (Thermo Fisher Scientific) which was supplemented with protease and phosphatase inhibitors. The resulting cell suspensions were transferred to pre-chilled microcentrifuge tubes, incubated on ice for 20 min with intermittent mixing and then centrifuged at 12,000 rpm for 20 min at 4° C. The supernatants were then aspirated slowly and transferred into new tubes kept on ice. The protein concentration in the samples was determined using BCA kit (Thermo Fisher Scientific) as per manufacturer's instructions.
(§2) For the p62 oligomerization and LC3 lipidation assays, cell lysates were prepared using RIPA buffer supplemented with 2% SDS and benzonase (Sigma). The lysates were then combined with 4× Laemmli protein sample buffer (Bio-Rad), heated at 70° C. for 10 min and subjected to a brief centrifugation of 10-15 seconds.
(§3) For p62 oligomerization and LC3 lipidation assays, lysates containing 30 μg of protein and for BRD4 and FKBP12(F36V) degradation assays, lysates containing 20 μg of protein, were loaded slowly into the wells of 4-20% gradient Tris-glycine gels (Bio-Rad). The gels were run at 100V until completion and transferred onto PVDF membranes. Membranes were blocked using 5% milk in TBS-Tween (0.1%) buffer at room temperature for 1 hour. The membranes were incubated with primary antibody in 5% milk-TBST with shaking, overnight at 4° C. The primary antibodies used were: p62 (Novus Biologicals 2C11, H00008878-MO1), LC3A/B (Cell Signalling Technology D3U4C, 12741S), FKBP12 (Abcam ab24373), BRD4 (Cell Signalling Technology E2A7X, 13440S), GAPDH (Cell Signalling Technology D4C6R, 97166S), and β-Actin (Proteintech 66009-1-Ig). Following primary antibody incubation, membranes were washed thrice with TBST 10 min before and after incubation with secondary-HRP conjugated antibody in 5% milk-TBST for 1 hour at room temperature. The secondary antibodies used were: Anti-Mouse IgG HRP Conjugate (Promega W4021B) and Anti-Rabbit IgG HRP Conjugate (Promega W4011B). For the p62 oligomerization assay, the total protein levels were assessed using Ponceau staining (Thermo Fisher Scientific) of PVDF membrane as per recommendation by manufacturer's guidelines.
(§4) Imaging was acquired using SuperSignal™ West Pico PLUS Chemiluminescent Substrate (Thermo Fisher Scientific) with iBright Invitrogen FL100 imaging system. Band signal intensity, reflective of protein concentrations, were quantified using Invitrogen™ iBright™ Analysis and Image J software.
HeLa cells were treated with compounds for 24 hours to evaluate the effect of these compounds on p62 oligomerisation activity. The resulting changes in levels of p62 oligomers were assessed by Western blotting, as described in experimental procedures. The fold change of p62 oligomer levels induced by compound treatment relative to vehicle control (DMSO) was determined and summarized in Table 8. Specifically, FIGS. 2A-C show Western blot images and their corresponding quantification showing the levels of high molecular weight (100-200 kDa) p62 oligomers by 24 hours compound treatments at listed concentrations, relative to vehicle control (DMSO) in HeLa cells. Protein loading consistencies was assessed by Ponceau staining (not shown).

The test system of experiment [2] is LC3 protein (LC3-II/LC3-I) in HeLa cells. The experiment in a line: LC3 lipidation assay (LC3-II/LC3-I, Western blot, 24 h treatment). It counts as cell-based. As to conditions: fold change in LC3-II/LC3-I relative to DMSO control. How it is done:
as §1, §2, §3, §4
HeLa cells were treated with compounds for 24 hours to evaluate the effect of these compounds on LC3-II/LC3-I levels, a measure of autophagy activation. The changes in levels of LC3-I, LC3-II and β-Actin (loading control) were assessed by Western blotting, as described in experimental procedures. The fold increase of LC3-II/LC3-I levels induced by compound treatment relative to vehicle control (DMSO) was determined and summarized in Table 9. Specifically, FIGS. 3A-C show Western blot images and their corresponding quantification showing the lipidation levels of LC3 protein (LC3-II/LC3-I) by 24 hours compound treatments at listed concentrations, relative to vehicle control (DMSO) in HeLa cells.
Background: Immunoblotting shows a protein as a band on a membrane.

T1 sequence (Q13501 whole entry, species assumed): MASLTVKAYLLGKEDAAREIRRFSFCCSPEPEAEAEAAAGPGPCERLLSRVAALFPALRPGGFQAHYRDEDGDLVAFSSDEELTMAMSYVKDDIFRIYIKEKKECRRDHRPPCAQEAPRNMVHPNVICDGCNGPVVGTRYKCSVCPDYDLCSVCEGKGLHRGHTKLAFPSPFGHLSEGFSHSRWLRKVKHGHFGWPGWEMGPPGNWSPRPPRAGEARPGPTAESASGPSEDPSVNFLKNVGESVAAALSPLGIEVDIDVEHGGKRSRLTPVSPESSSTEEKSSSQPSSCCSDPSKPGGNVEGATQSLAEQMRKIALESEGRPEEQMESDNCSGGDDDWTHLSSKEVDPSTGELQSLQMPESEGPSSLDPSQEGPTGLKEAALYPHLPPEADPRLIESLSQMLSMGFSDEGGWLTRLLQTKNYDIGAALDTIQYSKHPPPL

In the case of `OCCNCc1ccc2cc(-c3ccccc3)oc2c1` [Compound 2, 2-(((2-phenylbenzofuran-6-yl)methyl)amino)ethan-1-ol], the receptor occupancy at 100 µM at Recombinant p62 protein is 30 to 70%. Besides, the p62 oligomerization entry in experiment [1] is recorded as “++ (> 2-fold change relative to DMSO control)”. Also, the LC3 lipidation entry in experiment [2] is “++ (> 2-fold change in LC3-II/LC3-I relative to DMSO control)”.
In the same order, the values of `OCCNCc1ccc2cc(Cc3ccc(Cl)cc3)oc2c1` [Compound 13, 2-(((2-(4-chlorobenzyl)benzofuran-6-yl)methyl)amino)ethan-1-ol] are more than 70%, “++ (> 2-fold change relative to DMSO control)” and “++ (> 2-fold change in LC3-II/LC3-I relative to DMSO control)”.
For `Cc1c(Cc2ccccc2)oc2cc(CNCCO)ccc12` [Compound 42, 2-(((2-benzyl-3-methylbenzofuran-6-yl)methyl)amino)ethan-1-ol], in that order: 30 to 70%, “+ (< 2-fold change relative to DMSO control)” and “+ (< 2-fold change in LC3-II/LC3-I relative to DMSO control)”.
Turning to `OCCNCc1ccc2cc(CCc3ccc(F)cc3)oc2c1` [Compound 49, 2-(((2-(4-fluorophenethyl)benzofuran-6-yl)methyl)amino)ethan-1-ol], the receptor occupancy at 100 µM at Recombinant p62 protein fell in the range of 30 to 70%. In addition, the p62 oligomerization entry in experiment [1] was “++ (> 2-fold change relative to DMSO control)”. In experiment [2], the LC3 lipidation result is “+ (< 2-fold change in LC3-II/LC3-I relative to DMSO control)”.
For the compound `OCCNCc1ccc2cc(Cc3ccccc3)oc2c1` [compound 1], at Recombinant p62 protein, the receptor occupancy at 100 µM was less than 30%. In addition, in experiment [1], the p62 oligomerization result was “+ (< 2-fold change relative to DMSO control)”. Further, in experiment [2], the LC3 lipidation result is “+ (< 2-fold change in LC3-II/LC3-I relative to DMSO control)”.
In the same order, the values of `OCCNCc1ccc2cc(Cc3ccc(F)cc3)oc2c1` [compound 12] are more than 70%, “++ (> 2-fold change relative to DMSO control)” and “+ (< 2-fold change in LC3-II/LC3-I relative to DMSO control)”.
